Measurements reported in paper PMC11650638, “In Vivo Activity Profiling of Biosynthetic Darobactin D22 against Critical Gram-Negative Pathogens” (ACS Infectious Diseases, 2024).

Tests used:
Escherichia coli 106-09 = test: Murine peritonitis/sepsis model; type: in vivo, CD-1 female mice; conditions: 40 mg/kg SC q6h
Method: Mice were infected IP (Figure S7). […]
reduce stress and harm arising from experimental procedures, including use of analgesia, access to wet food and additional bedding. The room temperature, relative humidity and maximum background noise were maintained according to Home Office Code of Practice. Mice were exposed to 12-hour light/dark […]
Mice were immunosuppressed using cyclophosphamide administered subcutaneously (SC) at 150 mg/kg on day minus 4 and at 100 mg/kg on day minus 1 relative to the day of infection. Following […]
CFU/thigh P. aeruginosa PAO1 by intramuscular (IM) injection of 50 µL bacterial suspension into both thighs. Following infection, a single dose of carprofen was administered SC to provide pain relief.
One hour post-inoculation, one group of mice were euthanized to quantify the pre-treatment bacterial burden. […]
At eight or 25 hours post infection, mice were euthanized by overdose of pentobarbitone and death confirmed by cervical dislocation. […] The bacterial burden was quantified following overnight incubation of agar plates at 37°C. For analytical purposes, burdens from individual thighs were counted as independent […]
intravenously. Mice were observed during the study and scored 0 – 4 based on their behavior and clinical signs of discomfort and euthanized at the humane endpoint as a surrogate marker for death. […]

Escherichia coli = test: MIC50/MIC90 determination and MIC against isolates of E. coli; type: cell-based
Pseudomonas aeruginosa = test: MIC50/MIC90 determination and MIC against isolates of P. aeruginosa; type: cell-based
Acinetobacter baumannii = test: MIC50/MIC90 determination and MIC against isolates of A. baumannii; type: cell-based
Klebsiella pneumoniae = test: MIC50/MIC90 determination and MIC against isolates of K. pneumoniae; type: cell-based

C[C@@H](O)[C@H]1C(=O)N2C(C(=O)O)=C(S[C@@H]3CN[C@H](C(=O)N(C)C)C3)[C@H](C)[C@H]12 [MER, Meropenem]
–4.33 log CFU/mL: Δlog CFU/mL PF compared to SOT (Escherichia coli 106-09)
–2.98 log CFU/mL: Δlog CFU/mL Blood compared to SOT (Escherichia coli 106-09)

colistin
8 µg/mL: MIC (Escherichia coli; isolate NCTC13846) | MIC (Acinetobacter baumannii; isolate ATCC51432) | MIC (Acinetobacter baumannii; isolate ATCC BAA-1795) | MIC (Acinetobacter baumannii; isolate NCTC13301)
2 to 8 µg/mL: MIC (Acinetobacter baumannii; isolate G478 (AYE))
4 µg/mL: MIC (Pseudomonas aeruginosa; isolate BOR 04) | MIC (Pseudomonas aeruginosa; isolate BOR 05) | MIC (Pseudomonas aeruginosa; isolate CHRU LILLE VAP11) | MIC (Pseudomonas aeruginosa; isolate CHRU LILLE VAP65a) | MIC (Pseudomonas aeruginosa; isolate NANC 06) | MIC (Pseudomonas aeruginosa; isolate PAO1) | MIC (Pseudomonas aeruginosa; isolate PBI 01) | MIC (Pseudomonas aeruginosa; isolate PGP 02) | MIC (Pseudomonas aeruginosa; isolate R1541) | MIC (Pseudomonas aeruginosa; isolate R2254) | MIC (Pseudomonas aeruginosa; isolate ROU 01) | MIC (Acinetobacter baumannii; isolate ATCC17978) | MIC (Acinetobacter baumannii; isolate ATCC19187) | MIC (Acinetobacter baumannii; isolate ATCC19606) | MIC (Acinetobacter baumannii; isolate ATCC BAA-747) | MIC (Acinetobacter baumannii; isolate ATCC BAA-1878) | MIC (Acinetobacter baumannii; isolate BM4652 (efflux mutant)) | MIC (Acinetobacter baumannii; isolate DSM 30008) | MIC (Klebsiella pneumoniae; isolate ATCC BAA-2342)
4 to 8 µg/mL: MIC (Acinetobacter baumannii; isolate ATCC BAA-1710) | MIC (Acinetobacter baumannii; isolate BM4454) | MIC (Acinetobacter baumannii; isolate CIP 107292) | MIC (Acinetobacter baumannii; isolate R831) | MIC (Acinetobacter baumannii; isolate R835)
2 µg/mL: MIC (Escherichia coli; isolate ATCC BAA-2340) | MIC (Escherichia coli; isolate ATCC BAA-2469) | MIC (Escherichia coli; isolate G38) | MIC (Escherichia coli; isolate G41 (first listing)) | MIC (Escherichia coli; isolate G260) | MIC (Escherichia coli; isolate G264) | MIC (Escherichia coli; isolate G409) | MIC (Escherichia coli; isolate G486) | MIC (Escherichia coli; isolate NCTC13441) | MIC (Escherichia coli; isolate PRAA17) | MIC (Escherichia coli; isolate PRAA18) | MIC (Escherichia coli; isolate R721) | MIC (Escherichia coli; isolate R995) | MIC (Escherichia coli; isolate R1535) | MIC (Pseudomonas aeruginosa; isolate ATCC BAA-2114) | MIC (Pseudomonas aeruginosa; isolate CAE 02) | MIC (Pseudomonas aeruginosa; isolate CHA) | MIC (Pseudomonas aeruginosa; isolate CIP 105250) | MIC (Pseudomonas aeruginosa; isolate CIP 105381) | MIC (Pseudomonas aeruginosa; isolate CIP 107051) | MIC (Pseudomonas aeruginosa; isolate CLI 03) | MIC (Pseudomonas aeruginosa; isolate COL 03) | MIC (Pseudomonas aeruginosa; isolate DIJ 02) | MIC (Pseudomonas aeruginosa; isolate NANC 01) | MIC (Pseudomonas aeruginosa; isolate NCTC13437) | MIC (Pseudomonas aeruginosa; isolate PA 43) | MIC (Pseudomonas aeruginosa; isolate PBI 03G) | MIC (Pseudomonas aeruginosa; isolate PBI 07) | MIC (Pseudomonas aeruginosa; isolate R2255) | MIC (Pseudomonas aeruginosa; isolate R2256) | MIC (Pseudomonas aeruginosa; isolate SDE 05) | MIC (Pseudomonas aeruginosa; isolate STR 02) | MIC (Acinetobacter baumannii; isolate ATCC27224) | MIC (Acinetobacter baumannii; isolate ATCC BAA-1605) | MIC (Acinetobacter baumannii; isolate ATCC BAA-1791) | MIC (Acinetobacter baumannii; isolate CIP 105742) | MIC (Klebsiella pneumoniae; isolate ATCC BAA-1705) | MIC (Klebsiella pneumoniae; isolate ATCC BAA-2472) | MIC (Klebsiella pneumoniae; isolate CIP 105705) | MIC (Klebsiella pneumoniae; isolate CIP 106982) | MIC (Klebsiella pneumoniae; isolate Clinical Lyo-03) | MIC (Klebsiella pneumoniae; isolate NCTC13439)
64 µg/mL: MIC (Klebsiella pneumoniae; isolate ATCC13883 ColR_)
16 µg/mL: MIC (Klebsiella pneumoniae; isolate CIP 104298)
1 µg/mL: MIC (Escherichia coli; isolate G41 (second listing)) | MIC (Escherichia coli; isolate G487) | MIC (Escherichia coli; isolate NCTC13400) | MIC (Escherichia coli; isolate PRAA1) | MIC (Escherichia coli; isolate R996) | MIC (Klebsiella pneumoniae; isolate ATCC13883) | MIC (Klebsiella pneumoniae; isolate ATCC43816) | MIC (Klebsiella pneumoniae; isolate ATCC BAA-1903) | MIC (Klebsiella pneumoniae; isolate ATCC BAA-2470) | MIC (Klebsiella pneumoniae; isolate ATCC BAA-2473) | MIC (Klebsiella pneumoniae; isolate CIP 104119) | MIC (Klebsiella pneumoniae; isolate Clinical Lyo-01) | MIC (Klebsiella pneumoniae; isolate Clinical Lyo-02) | MIC (Klebsiella pneumoniae; isolate Clinical Lyo-04) | MIC (Klebsiella pneumoniae; isolate Clinical Lyo-05) | MIC (Klebsiella pneumoniae; isolate G52) | MIC (Klebsiella pneumoniae; isolate G197) | MIC (Klebsiella pneumoniae; isolate G201) | MIC (Klebsiella pneumoniae; isolate G306) | MIC (Klebsiella pneumoniae; isolate NCTC13438) | MIC (Klebsiella pneumoniae; isolate NCTC13442) | MIC (Klebsiella pneumoniae; isolate NCTC13443) | MIC (Klebsiella pneumoniae; isolate R750) | MIC (Klebsiella pneumoniae; isolate R1242) | MIC (Klebsiella pneumoniae; isolate R1525) | MIC (Klebsiella pneumoniae; isolate R2673)
1 to 2 µg/mL: MIC (Escherichia coli; isolate ATCC BAA-2471) | MIC (Escherichia coli; isolate CIP 104103) | MIC (Escherichia coli; isolate CIP 105706) | MIC (Escherichia coli; isolate R2670)
2 to 4 µg/mL: MIC (Escherichia coli; isolate ATCC25922) | MIC (Escherichia coli; isolate CIP 107049) | MIC (Escherichia coli; isolate NCTC10418) | MIC (Escherichia coli; isolate NCTC13352) | MIC (Escherichia coli; isolate PRAA3) | MIC (Escherichia coli; isolate PRAA21) | MIC (Pseudomonas aeruginosa; isolate CLI 02) | MIC (Pseudomonas aeruginosa; isolate TOUL 01) | MIC (Acinetobacter baumannii; isolate ATCC19003)
